Experimental data reported in publication PMC4319760, “Rapid Identification of α-Glucosidase Inhibitors from Phlomis tuberosa by Sepbox Chromatography and Thin-Layer Chromatography Bioautography” (PLoS ONE, 2015).

Columns and labels:
[1] = system: α-D-glucosidase; assay: TLC bioautographic assay for α-glucosidase inhibitors; assay type: biochemical; settings: S1 Fig, subfractions 20 μL, ethyl acetate fraction 5 mg/mL, acarbose 1 mg/mL, 4 μL, qualitative
Text: In the present work, a high-performance thin-layer chromatographic system (CAMAG, Switzerland) equipped with an automatic TLC Sampler 4 and a Reprostar 3 with a 12-bit charge-coupled device camera for photo-documentation and controlled by WinCATS-4 software was used. […] After migration of the samples with appropriate solvents or no migration, the plates were inspected under ultraviolet light (366 nm) and then subjected to bioautographic assay as described below.
TLC bioautographic assay: TLC bioautographic assay was carried out as described previously in terms of reaction principle and response system but with slight modifications. First, the concentration of α-glucosidase was reduced from 10 U/mL to 2.5 U/mL. Second, the plate was dipped into the reaction solutions (including the enzyme solution, the substrate solution, and the coloration solution), instead of being sprayed with them. Third, the conditions for enzyme incubation were changed from room temperature for 60 min to 37°C for 30 min. Briefly, α-D-glucosidase (750 U) was dissolved in 75 mL of buffer solution (10.25 g of sodium acetate in 250 mL with addition of 0.1 M acetic acid to pH 7.5). The stock solution was kept at -20°C. A stock solution of 25 mL was diluted with the same buffer solution to 100 mL as the enzyme solution, and a substrate solution of 1 mg/mL 2-naphthyl-α-D-glucopyranoside in ethanol was prepared. […]

[2] = molecular target: α-Glucosidase; assay: α-Glucosidase inhibitory activity assay (4-nitrophenyl α-glucopyranoside substrate, absorbance at 405 nm); assay type: biochemical, Saccharomyces cerevisiae; settings: 0.26 U/mL enzyme, pH 6.8, 37°C; mean ± SEM, triplicate
Description: After incubation at 37°C for 10 min, 100 μL of the substrate, 4-nitrophenyl α-glucopyranoside (5 mM, in potassium phosphate buffer) was added to the mixture. The enzymatic reaction was allowed to proceed at 37°C for 20 min and stopped by addition of 100 μL of 0.2 M NaCO3. 4-Nitrophenol absorptions were subsequently measured at 405 nm using a spectrophotometer. […] The IC50 value was defined as the concentration of α-glucosidase inhibitor required to inhibit 50% of α-glucosidase activity under the assay conditions. Experiments were performed in triplicate, and all results are expressed as mean ± SEM.

[3] = design: method as in PMID 23850835, PMID 18460146; settings: previous toxicity studies; ref [23]–[25]; cited from earlier work

| IC50 [2] [mM] | SMILES | α-glucosidase inhibitory activity in bioautographic chromatogram (white spots), screening [1] | toxicity [3] |
| --- | --- | --- | --- |
|  | C[C@H]1O[C@H](O[C@H]2[C@H](O)[C@@H](O)[C@@H](O[C@H]3[C@H](O)[C@@H](O)C(O)O[C@@H]3CO)O[C@@H]2CO)[C@H](O)[C@@H](O)[C@@H]1N[C@H]1C=C(CO)[C@@H](O)[C@H](O)[C@H]1O (some centres unmarked) [Acarbose, acarbose] | produced white spots |  |
| 0.067 ± 0.003 | CC1=C(CCc2ccoc2)C2(C)CCCC(C)(CO)C2CC1 (centres unmarked) [Compound 4, 15,16-eposy-8,13(16),14-labdatrien-19-ol] |  |  |
| 0.482 ± 0.019 | CC1=C(CCc2ccoc2)C2(C)CCCC(C)(C(=O)O)C2CC1 (centres unmarked) [Compound 5, phlomisoic acid] |  |  |
| 0.21 ± 0.01 | CC1=C(CCc2ccoc2)C2(C)CCCC(C)(C)C2CC1 (centres unmarked) [Compound 6, 15,16-eposy-8,13(16),14-labdatrien] |  |  |
| 0.518 ± 0.017 | C[C@@H]1O[C@@H](O[C@@H]2[C@@H](O)[C@H](OCCc3ccc(O)c(O)c3)O[C@H](CO)[C@H]2OC(=O)/C=C/c2ccc(O)c(O)c2)[C@H](O)[C@H](O)[C@H]1O [Compound 7, acteoside] |  | nontoxic |
| 1.2 ± 0.032 | C[C@@H]1O[C@@H](O[C@@H]2[C@@H](O)[C@H](OCCc3ccc(O)c(O)c3)O[C@H](COC(=O)/C=C/c3ccc(O)c(O)c3)[C@H]2O)[C@H](O)[C@H](O)[C@H]1O [Compound 8, isoacteoside] |  |  |
|  | COc1ccc(-c2cc(=O)c3c(O)cc(OC4OC(COC5OC(C)C(O)C(O)C5O)C(O)C(O)C4O)cc3o2)cc1 (centres unmarked) [Compound 10, acacetin-7-rutinoside] |  | nontoxic |
| 0.428 ± 0.018 | O=c1cc(-c2ccc(O)c(O)c2)oc2cc(O)cc(O)c12 [Compound 11, luteolin] |  |  |
| 0.229 ± 0.017 | CCCCCCCc1c(O)cc(CC=C(C)C)c(O)c1C=O [Compound 17, flavoglaucin] |  |  |
| 0.283 ± 0.013 | CCCCC/C=C/c1c(O)cc(CC=C(C)C)c(O)c1C=O [Compound 18, tetrahydroauroglaucin] |  |  |
| 0.255 ± 0.013 | CCC/C=C/C=C/c1c(O)cc(CC=C(C)C)c(O)c1C=O [Compound 19, dihydroauroglaucin] |  |  |
| 0.371 ± 0.015 | CCCCCc1cc2c(C=O)c(O)c(CC=C(C)C)cc2o1 [Compound 20, 2-(2′,3-epoxy-1′-heptenyl)-6-hydroxy-5-(3″-methyl-2″-butenyl) benzaldehyde] |  |  |

| SMILES | IC50 [2] [mM] | α-glucosidase inhibitory activity in bioautographic chromatogram (white spots), screening [1] | toxicity [3] |
| --- | --- | --- | --- |
| CC1(C(=O)O)CCCC2(C)c3c(C=O)c4c(c(O)c3CCC12)COC4=O (centres unmarked) [Compound 1, 14-hydroxyabieta-8,11,13-triene-11-carbaldehyde-18-oic-12-carboxy-13-(1-hydroxy-1-methylethyl)-lactone] | 0.379 ± 0.016 |  |  |
| CC1(C(=O)O)CCCC2(C)c3cc4c(c(O)c3CCC12)COC4=O (centres unmarked) [Compound 2, 14-hydroxyabieta-8,11,13-triene-17-oic-12-carboxy-13-(1-hydroxy-1-methylethyl)-lactone] | 0.624 ± 0.026 |  |  |
| CC1OC(Oc2c(-c3ccc(O)c(O)c3)oc3cc(O)cc(O)c3c2=O)C(O)C(O)C1O (centres unmarked) [Compound 12, quercetin-3-rhamnoside] | 0.562 ± 0.021 |  | nontoxic |
